Conditions: Liquid; for speed of sound: Pulse-echo method; for mass density: Vibrating tube method

CCCCCCCC/C=C\CCCCCCCC(=O)OC [methyl cis-9-octadecenoate]
Conditions | mass density [kg/m3] | speed of sound [m/s]
283.15 K, 101.3 kPa | – | 1443.2
283.15 K, 10000 kPa | – | 1486.1
283.15 K, 20000 kPa | – | 1526.5
283.15 K, 30000 kPa | – | 1564.5
283.15 K, 40000 kPa | – | 1600.5
283.15 K, 50000 kPa | – | 1634.5
283.15 K, 60000 kPa | – | 1668.6
283.15 K, 70000 kPa | – | 1701
283.15 K, 80000 kPa | – | 1732.7
283.15 K, 90000 kPa | – | 1762.7
283.15 K, 100000 kPa | – | 1790.8
283.15 K, 110000 kPa | – | 1819.3
283.15 K, 120000 kPa | – | 1846
283.15 K, 130000 kPa | – | 1872.5
283.15 K, 140000 kPa | – | 1897.8
283.15 K, 150000 kPa | – | 1923.3
283.15 K, 160000 kPa | – | 1947.8
283.15 K, 170000 kPa | – | 1971.2
283.15 K, 180000 kPa | – | 1994.3
283.15 K, 190000 kPa | – | 2016.8
283.15 K, 200000 kPa | – | 2036.4
293.15 K, 101.3 kPa | 873.8 | –
293.15 K, 10000 kPa | 880 | –
293.15 K, 20000 kPa | 885.3 | –
293.15 K, 30000 kPa | 890.6 | –
293.15 K, 40000 kPa | 895.5 | –
293.15 K, 50000 kPa | 900.1 | –
293.15 K, 60000 kPa | 904.5 | –
293.15 K, 70000 kPa | 908.9 | –
293.15 K, 80000 kPa | 912.6 | –
293.15 K, 90000 kPa | 916.9 | –
293.15 K, 100000 kPa | 920.7 | –
303.15 K, 101.3 kPa | 866.3 | 1370.5
303.15 K, 10000 kPa | 872.8 | 1416.8
303.15 K, 20000 kPa | 878.4 | 1460
303.15 K, 30000 kPa | 883.9 | 1502
303.15 K, 40000 kPa | 888.9 | 1540.9
303.15 K, 50000 kPa | 893.7 | 1578.3
303.15 K, 60000 kPa | 898.3 | 1613.7
303.15 K, 70000 kPa | 902.7 | 1647
303.15 K, 80000 kPa | 906.9 | 1678.8
303.15 K, 90000 kPa | 910.9 | 1709.5
303.15 K, 100000 kPa | 915.4 | 1739.7
303.15 K, 110000 kPa | – | 1768.5
303.15 K, 120000 kPa | – | 1796.4
303.15 K, 130000 kPa | – | 1821.2
303.15 K, 140000 kPa | – | 1848.1
303.15 K, 150000 kPa | – | 1874.2
303.15 K, 160000 kPa | – | 1899
303.15 K, 170000 kPa | – | 1923.1
303.15 K, 180000 kPa | – | 1947
303.15 K, 190000 kPa | – | 1970.3
303.15 K, 200000 kPa | – | 1992.7
313.15 K, 101.3 kPa | 859.6 | –
313.15 K, 10000 kPa | 865.8 | –
313.15 K, 20000 kPa | 871.7 | –
313.15 K, 30000 kPa | 877.5 | –
313.15 K, 40000 kPa | 882.5 | –
313.15 K, 50000 kPa | 887.5 | –
313.15 K, 60000 kPa | 892.2 | –
313.15 K, 70000 kPa | 896.7 | –
313.15 K, 80000 kPa | 901.2 | –
313.15 K, 90000 kPa | 905.2 | –
313.15 K, 100000 kPa | 909.7 | –
323.15 K, 101.3 kPa | 852.4 | 1301.9
323.15 K, 10000 kPa | 858.9 | 1352.1
323.15 K, 20000 kPa | 865.1 | 1397.7
323.15 K, 30000 kPa | 870.9 | 1441.1
323.15 K, 40000 kPa | 876.1 | 1482.3
323.15 K, 50000 kPa | 881.1 | 1521.2
323.15 K, 60000 kPa | 886.2 | 1558.5
323.15 K, 70000 kPa | 891 | 1593.5
323.15 K, 80000 kPa | 895.5 | 1627.2
323.15 K, 90000 kPa | 899.7 | 1659.3
323.15 K, 100000 kPa | 904.1 | 1690.2
323.15 K, 110000 kPa | – | 1719.3
323.15 K, 120000 kPa | – | 1747.7
323.15 K, 130000 kPa | – | 1775.4
323.15 K, 140000 kPa | – | 1801.6
323.15 K, 150000 kPa | – | 1827.1
323.15 K, 160000 kPa | – | 1853
323.15 K, 170000 kPa | – | 1878.4
323.15 K, 180000 kPa | – | 1902.6
323.15 K, 190000 kPa | – | 1925.8
323.15 K, 200000 kPa | – | 1949.2
333.15 K, 101.3 kPa | 844.8 | –
333.15 K, 10000 kPa | 851.7 | –
333.15 K, 20000 kPa | 858.3 | –
333.15 K, 30000 kPa | 864.2 | –
333.15 K, 40000 kPa | 869.7 | –
333.15 K, 50000 kPa | 875 | –
333.15 K, 60000 kPa | 880.1 | –
333.15 K, 70000 kPa | 884.9 | –
333.15 K, 80000 kPa | 889.4 | –
333.15 K, 90000 kPa | 893.9 | –
333.15 K, 100000 kPa | 898.2 | –
343.15 K, 101.3 kPa | 837.8 | 1235.8
343.15 K, 10000 kPa | 845.2 | 1289
343.15 K, 20000 kPa | 851.9 | 1338.1
343.15 K, 30000 kPa | 858.1 | 1383.7
343.15 K, 40000 kPa | 864 | 1426
343.15 K, 50000 kPa | 869.5 | 1466.7
343.15 K, 60000 kPa | 874.6 | 1505.4
343.15 K, 70000 kPa | 879.5 | 1542.2
343.15 K, 80000 kPa | 884.4 | 1575.4
343.15 K, 90000 kPa | 889 | 1609.4
343.15 K, 100000 kPa | 893.4 | 1641.6
343.15 K, 110000 kPa | – | 1672.6
343.15 K, 120000 kPa | – | 1701.9
343.15 K, 130000 kPa | – | 1729.9
343.15 K, 140000 kPa | – | 1757.3
343.15 K, 150000 kPa | – | 1783.8
343.15 K, 160000 kPa | – | 1809.7
343.15 K, 170000 kPa | – | 1834.3
343.15 K, 180000 kPa | – | 1859.7
343.15 K, 190000 kPa | – | 1883.4
343.15 K, 200000 kPa | – | 1905.8
353.15 K, 101.3 kPa | 830.4 | –
353.15 K, 10000 kPa | 838 | –
353.15 K, 20000 kPa | 845.1 | –
353.15 K, 30000 kPa | 851.5 | –
353.15 K, 40000 kPa | 857.5 | –
353.15 K, 50000 kPa | 863.3 | –
353.15 K, 60000 kPa | 868.7 | –
353.15 K, 70000 kPa | 873.8 | –
353.15 K, 80000 kPa | 878.7 | –
353.15 K, 90000 kPa | 883.6 | –
353.15 K, 100000 kPa | 888.2 | –
363.15 K, 101.3 kPa | 823.2 | 1170.9
363.15 K, 10000 kPa | 831.3 | 1228.2
363.15 K, 20000 kPa | 838.7 | 1280.6
363.15 K, 30000 kPa | 845.5 | 1329.3
363.15 K, 40000 kPa | 851.8 | 1374
363.15 K, 50000 kPa | 857.7 | 1414.4
363.15 K, 60000 kPa | 863.1 | 1454.6
363.15 K, 70000 kPa | 868.4 | 1492.2
363.15 K, 80000 kPa | 873.3 | 1527.5
363.15 K, 90000 kPa | 878.1 | 1563.5
363.15 K, 100000 kPa | 882.9 | 1597.2
363.15 K, 110000 kPa | – | 1629.1
363.15 K, 120000 kPa | – | 1659.3
363.15 K, 130000 kPa | – | 1687.5
363.15 K, 140000 kPa | – | 1715.4
363.15 K, 150000 kPa | – | 1741.8
363.15 K, 160000 kPa | – | 1766.9
363.15 K, 170000 kPa | – | 1793.1
363.15 K, 180000 kPa | – | 1817.7
363.15 K, 190000 kPa | – | 1841.2
363.15 K, 200000 kPa | – | 1864.9
373.15 K, 101.3 kPa | 815.8 | –
373.15 K, 10000 kPa | 824.2 | –
373.15 K, 20000 kPa | 832 | –
373.15 K, 30000 kPa | 839.1 | –
373.15 K, 40000 kPa | 845.7 | –
373.15 K, 50000 kPa | 851.8 | –
373.15 K, 60000 kPa | 857.5 | –
373.15 K, 70000 kPa | 862.9 | –
373.15 K, 80000 kPa | 868.2 | –
373.15 K, 90000 kPa | 873 | –
373.15 K, 100000 kPa | 878.1 | –
383.15 K, 101.3 kPa | 808.4 | 1108.9
383.15 K, 10000 kPa | 817.4 | 1170.4
383.15 K, 20000 kPa | 825.5 | 1226.5
383.15 K, 30000 kPa | 832.7 | 1277.8
383.15 K, 40000 kPa | 839.5 | 1324.6
383.15 K, 50000 kPa | 845.9 | 1367.4
383.15 K, 60000 kPa | 851.8 | 1407.7
383.15 K, 70000 kPa | 857.5 | 1446.1
383.15 K, 80000 kPa | 862.8 | 1481.7
383.15 K, 90000 kPa | 867.9 | 1516.9
383.15 K, 100000 kPa | 873.2 | 1550.2
383.15 K, 110000 kPa | – | 1583.4
383.15 K, 120000 kPa | – | 1615.8
383.15 K, 130000 kPa | – | 1645.9
383.15 K, 140000 kPa | – | 1674.2
383.15 K, 150000 kPa | – | 1701.5
383.15 K, 160000 kPa | – | 1729.4
383.15 K, 170000 kPa | – | 1755.3
383.15 K, 180000 kPa | – | 1781.4
383.15 K, 190000 kPa | – | 1805.7
383.15 K, 200000 kPa | – | 1828.3
393.15 K, 101.3 kPa | 800.8 | 1078.5
393.15 K, 10000 kPa | 810.2 | 1142.4
393.15 K, 20000 kPa | 818.5 | 1200
393.15 K, 30000 kPa | 826.2 | 1252
393.15 K, 40000 kPa | 833.2 | 1299.9
393.15 K, 50000 kPa | 839.6 | 1343.8
393.15 K, 60000 kPa | 845.7 | 1384.5
393.15 K, 70000 kPa | 851.7 | 1423.6
393.15 K, 80000 kPa | 857.2 | 1460.2
393.15 K, 90000 kPa | 862.4 | 1495.7
393.15 K, 100000 kPa | 867.6 | 1529.7
393.15 K, 110000 kPa | – | 1562.8
393.15 K, 120000 kPa | – | 1593.9
393.15 K, 130000 kPa | – | 1624.5
393.15 K, 140000 kPa | – | 1654.6
393.15 K, 150000 kPa | – | 1683
393.15 K, 160000 kPa | – | 1710.3
393.15 K, 170000 kPa | – | 1736.2
393.15 K, 180000 kPa | – | 1761.2
393.15 K, 190000 kPa | – | 1785.3
393.15 K, 200000 kPa | – | 1809.7

Source: the NIST ThermoML archive (doi:10.1021/je4005323)
